Data as given in the NIST ThermoML archive (doi:10.1021/je060271a).
Values joined by “and” are separate entries in the source; they are usually repeats but may differ in a detail not shown here. Equal values may be shown once.

Conditions: 283.16 K, Liquid, Vibrating tube method

CCCCCC(=O)OCC(COC(=O)CCCCC)(COC(=O)CCCCC)COC(=O)CCCCC [pentaerythritol tetrahexanoate]
Conditions	mass density
94 kPa	1004.3 kg/m3
94.1 kPa	1004.2 kg/m3 and 1004.1 kg/m3
94.2 kPa	1004.2 kg/m3
94.3 kPa	1004.2 kg/m3
94.5 kPa	1004.2 kg/m3 and 1004.1 kg/m3
94.7 kPa	1004.1 kg/m3
94.8 kPa	1004.2 kg/m3
95 kPa	1004.1 kg/m3 and 1004.2 kg/m3
95.2 kPa	1004.1 kg/m3 and 1004.3 kg/m3
95.4 kPa	1004.2 kg/m3 and 1004.1 kg/m3
95.5 kPa	1004.2 kg/m3 and 1004.1 kg/m3
95.9 kPa	1004.2 kg/m3
96.1 kPa	1004.2 kg/m3
96.9 kPa	1004.1 kg/m3
97.1 kPa	1004.3 kg/m3
97.4 kPa	1004.3 kg/m3
97.8 kPa	1004.1 kg/m3
98.1 kPa	1004.2 kg/m3
98.3 kPa	1004.4 kg/m3
98.5 kPa	1004.1 kg/m3
98.6 kPa	1004.2 kg/m3
99 kPa	1004.2 kg/m3
99.3 kPa	1004.2 kg/m3
99.5 kPa	1004.2 kg/m3
99.7 kPa	1004.2 kg/m3 and 1004.1 kg/m3
100 kPa	1004.1 kg/m3 and 1004.2 kg/m3
100.2 kPa	1004.2 kg/m3 and 1004.3 kg/m3
100.4 kPa	1004.2 kg/m3
100.5 kPa	1004.2 kg/m3
100.7 kPa	1004.1 kg/m3
101 kPa	1004.2 kg/m3 and 1004.1 kg/m3
101.1 kPa	1004.2 kg/m3
101.2 kPa	1004.3 kg/m3 and 1004.1 kg/m3
101.4 kPa	1004.3 kg/m3 and 1004.1 kg/m3
101.7 kPa	1004.2 kg/m3
102.2 kPa	1004.1 kg/m3
102.4 kPa	1004.2 kg/m3
102.6 kPa	1004.2 kg/m3 and 1004.1 kg/m3
102.8 kPa	1004.3 kg/m3
103.1 kPa	1004.1 kg/m3 and 1004.2 kg/m3
103.3 kPa	1004.2 kg/m3
103.4 kPa	1004.1 kg/m3
103.6 kPa	1004.1 kg/m3
104 kPa	1004.1 kg/m3 and 1004.3 kg/m3
104.1 kPa	1004.1 kg/m3
104.3 kPa	1004.2 kg/m3
104.5 kPa	1004.1 kg/m3 and 1004.2 kg/m3
105 kPa	1004.2 kg/m3
105.2 kPa	1004.1 kg/m3
105.3 kPa	1004.2 kg/m3
105.5 kPa	1004.1 kg/m3
105.8 kPa	1004.2 kg/m3 and 1004.3 kg/m3
106 kPa	1004.1 kg/m3
106.2 kPa	1004.2 kg/m3
106.3 kPa	1004.2 kg/m3
106.4 kPa	1004.1 kg/m3
106.5 kPa	1004.2 kg/m3
106.7 kPa	1004.3 kg/m3
106.9 kPa	1004.2 kg/m3
107 kPa	1004.2 kg/m3 and 1004.1 kg/m3
107.2 kPa	1004.1 kg/m3
107.9 kPa	1004.2 kg/m3 and 1004.3 kg/m3
108.2 kPa	1004.2 kg/m3
108.6 kPa	1004.2 kg/m3
108.7 kPa	1004.1 kg/m3 and 1004.2 kg/m3
108.9 kPa	1004.2 kg/m3
109.4 kPa	1004.2 kg/m3
109.6 kPa	1004.2 kg/m3
109.8 kPa	1004.1 kg/m3
109.9 kPa	1004.2 kg/m3
110.1 kPa	1004.2 kg/m3
110.3 kPa	1004.2 kg/m3
110.5 kPa	1004.1 kg/m3
110.6 kPa	1004.4 kg/m3 and 1004.2 kg/m3
110.8 kPa	1004.2 kg/m3
111 kPa	1004.1 kg/m3
111.1 kPa	1004.2 kg/m3
111.3 kPa	1004.2 kg/m3
119.9 kPa	1004.1 kg/m3
120.5 kPa	1004.2 kg/m3
120.6 kPa	1004.1 kg/m3
120.8 kPa	1004.2 kg/m3
121 kPa	1004.2 kg/m3 and 1004.1 kg/m3
121.1 kPa	1004.3 kg/m3
126.7 kPa	1004.3 kg/m3
126.9 kPa	1004.4 kg/m3 and 1004.2 kg/m3
127 kPa	1004.2 kg/m3
127.4 kPa	1004.3 kg/m3
127.5 kPa	1004.1 kg/m3
127.7 kPa	1004.1 kg/m3
128.4 kPa	1004.2 kg/m3
128.6 kPa	1004.3 kg/m3
128.8 kPa	1004.2 kg/m3
129.1 kPa	1004.2 kg/m3
129.8 kPa	1004.2 kg/m3 and 1004.1 kg/m3 and 1004.3 kg/m3
130.3 kPa	1004.2 kg/m3
130.8 kPa	1004.2 kg/m3 and 1004.1 kg/m3
131.2 kPa	1004.3 kg/m3
131.5 kPa	1004.2 kg/m3
131.9 kPa	1004.2 kg/m3
132 kPa	1004.3 kg/m3
132.2 kPa	1004.3 kg/m3
132.4 kPa	1004.1 kg/m3
132.6 kPa	1004.2 kg/m3
132.7 kPa	1004 kg/m3
133.1 kPa	1004.2 kg/m3
133.4 kPa	1004.2 kg/m3
133.8 kPa	1004.2 kg/m3
145.2 kPa	1004.2 kg/m3
145.6 kPa	1004.2 kg/m3
146.1 kPa	1004.2 kg/m3
147 kPa	1004.2 kg/m3
148.7 kPa	1004.2 kg/m3
149.2 kPa	1004.2 kg/m3
149.4 kPa	1004.2 kg/m3
149.8 kPa	1004.4 kg/m3
150.1 kPa	1004.3 kg/m3 and 1004.2 kg/m3
158.8 kPa	1004.2 kg/m3
159 kPa	1004.1 kg/m3
159.1 kPa	1004.2 kg/m3
159.7 kPa	1004.3 kg/m3
159.8 kPa	1004.2 kg/m3
160.2 kPa	1004.3 kg/m3
168.7 kPa	1004.2 kg/m3
168.9 kPa	1004.2 kg/m3
169.4 kPa	1004.2 kg/m3
170.2 kPa	1004.2 kg/m3
170.6 kPa	1004.2 kg/m3
171.1 kPa	1004 kg/m3
171.5 kPa	1004.2 kg/m3
171.8 kPa	1004.1 kg/m3
172.3 kPa	1004.3 kg/m3
172.5 kPa	1004.3 kg/m3
175.8 kPa	1004.2 kg/m3
176.7 kPa	1004.2 kg/m3
177 kPa	1004.3 kg/m3
177.7 kPa	1004.2 kg/m3
216.6 kPa	1004.2 kg/m3
218.2 kPa	1004.4 kg/m3
218.5 kPa	1004.3 kg/m3
224.6 kPa	1004.3 kg/m3
224.9 kPa	1004.3 kg/m3
225.8 kPa	1004.2 kg/m3
226.1 kPa	1004.3 kg/m3
226.8 kPa	1004.3 kg/m3
